Reference: PMC12257394, “Design, Synthesis, and Biological Evaluation of Ferrocenyl–Cyclo-(Gly‑L‑Pro) Hybrids Sensitizing Multidrug-Resistant Cancer Cells to Anticancer Agents” (ACS Medicinal Chemistry Letters, 2025)
Entries after “also recorded” stand apart in the source; their conditions may differ.

Experiments:
[1] = Neutral red uptake viability assay, SW620V; assay type: cell-based, human; details: human, SW620V cells (vincristine-resistant), 72 h, n = 3, read-out: Cytotoxic activity IC50 (95% CI)
[2] = Neutral red uptake viability assay, SW620C; assay type: cell-based, human; details: human, SW620C cells (cisplatin-resistant); SW620C, 72 h, n = 3; read-out: Cytotoxic activity IC50 (95% CI)
Procedure: The normal lung fibroblast MRC-5 and colorectal adenocarcinoma SW620 cell lines used in this experiment were purchased from American Type Culture Collection (USA) via LGC […]
described previously.10, 11 All cells were cultured under standard conditions (37°C, 5% CO2, 100% humidity) in high-glucose DMEM supplemented with GlutaMaxTM, HEPES (ThermoFisher Scientific, USA), and 10% fetal bovine serum (EURx, Poland). Cells were routinely tested for potential Mycoplasma contamination using the MycoProbe Mycoplasma Detection kit (R&D System, USA).
In total, 104 cells in 100 µL of complete medium were plated per well of a 96-well plate and left overnight to allow cells to adhere to the surface. Then, the cells were exposed to a desired concentration of tested compound(s). Stock solutions were prepared in DMSO and used immediately. The final DMSO concentration was constant and nontoxic (0.1% v/v). After 70-h incubation, neutral red was added to the final concentration of 1 mM. After another 2 h, the medium was aspirated, and cells were washed twice with PBS. Dye was released using 100 µL of a solubilizer (1% acetic acid in 50% ethanol) on an orbital shaker (10 min). Absorbance was read at 540 nm using EnVision Multilabel Plate Reader (Perkin Elmer, USA). Results were expressed as % of control. The IC50 parameters were calculated using GraphPad Prism version 10 (GraphPad Software, Boston, Massachusetts USA). […]
IC₅₀ values were determined in […]
All experiments were performed in triplicate (n = 3).

ABCB1 = molecular target: T1, ABCB1 (Homo sapiens, UniProt P08183); test: Calcein accumulation transport assay in SW620V cells; assay type: cell-based; details: 10 µM compound; for increase of intracellular retention of calcein: ABCB1, SW620V cells; for inhibition of ABCB1 activity (calcein accumulation assay): SW620V cells, n = 3
T1 construct: ABCB1-overexpressing SW620V cells; endogenous in cells; host or cells: SW620V (vincristine-resistant variant of SW620, developed in the authors' laboratory by drug selection)
Text: To confirm the hypothesis of direct interaction between putative ABC protein inhibitors and transporter molecules, we conducted a series of experiments based on fluorescent probe transport as described previously. None of the compounds affected 2′,7′-bis(2-carboxyethyl)-5-(and-6)-carboxyfluorescein (BCECF) efflux out of SW620M cells, indicating the lack of interaction between the putative inhibitors and ABCC1 (Figure A). […] As anticipated, none of the newly synthesized compounds affected dye accumulation in drug-sensitive SW620 cells (data not shown).
SW620 cells and their drug-resistant variants overexpressing ABCB1 (SW620V), ABCC1 (SW620M), or ABCG2 (SW620Mito) were trypsinized and suspended in a complete cell - culture medium prewarmed to 37°C at a final density of approximately 1 × 10^6/mL. The tested compounds were added from DMSO stock solutions to a final concentration of 10 µM.
Respective samples were supplemented with a specific fluorescent marker (100 nM calcein AM for ABCB1, 100 nM BCECF AM for ABCC1, and 1 µM pheophorbide A for A BCG2). For the control, given protein-specific inhibitors (10 µM verapamil for ABCB1, 25 µM MK-571 for ABCC1, and 10 µM Ko143 for ABCG2) were added to parallel, tested compound-free, samples. For ABCB1 and ABCG2 assays (dye accumulation assays), intracellular fluorescence was measured by flow cytometry (FACSymphony A1, Becton, Dickinson and Company, New Jersey, USA) immediately after dye addition (time 0) and every 3–5 min up to approximately 30 min using a flow cytometer set at 488 nm excitation and 530/30 nm emission for the calcein/ABCB1 assay and 400 nm excitation and 655/8 nm emission for the pheophorbide A/ABCG2 assay. For the BCECF/ABCC1 assay (dye exclusion assay), the sample was preincubated at 37°C for 10 min, centrifuged (400 × g, 10 min, RT), and then resuspended in fresh medium. The intracellular BCECF concentration was then immediately measured at 488 nm excitation and 530/30 nm emission (time 0). Further measurements were performed at 15 - min intervals. All samples were incubated at 37°C between measurements. The accumulation/exclusion curves were plotted, and the slope of the initial accumulation rate or dye retention half time was evaluated using the GraphPad Prism software version 10 (GraphPad Software, Boston, Massachusetts USA). The difference between the a ccumulation rate/half time value for dye only and the tested compound/inhibitor samples was expressed as a given protein activity measure.

T1 sequence (P08183 whole entry): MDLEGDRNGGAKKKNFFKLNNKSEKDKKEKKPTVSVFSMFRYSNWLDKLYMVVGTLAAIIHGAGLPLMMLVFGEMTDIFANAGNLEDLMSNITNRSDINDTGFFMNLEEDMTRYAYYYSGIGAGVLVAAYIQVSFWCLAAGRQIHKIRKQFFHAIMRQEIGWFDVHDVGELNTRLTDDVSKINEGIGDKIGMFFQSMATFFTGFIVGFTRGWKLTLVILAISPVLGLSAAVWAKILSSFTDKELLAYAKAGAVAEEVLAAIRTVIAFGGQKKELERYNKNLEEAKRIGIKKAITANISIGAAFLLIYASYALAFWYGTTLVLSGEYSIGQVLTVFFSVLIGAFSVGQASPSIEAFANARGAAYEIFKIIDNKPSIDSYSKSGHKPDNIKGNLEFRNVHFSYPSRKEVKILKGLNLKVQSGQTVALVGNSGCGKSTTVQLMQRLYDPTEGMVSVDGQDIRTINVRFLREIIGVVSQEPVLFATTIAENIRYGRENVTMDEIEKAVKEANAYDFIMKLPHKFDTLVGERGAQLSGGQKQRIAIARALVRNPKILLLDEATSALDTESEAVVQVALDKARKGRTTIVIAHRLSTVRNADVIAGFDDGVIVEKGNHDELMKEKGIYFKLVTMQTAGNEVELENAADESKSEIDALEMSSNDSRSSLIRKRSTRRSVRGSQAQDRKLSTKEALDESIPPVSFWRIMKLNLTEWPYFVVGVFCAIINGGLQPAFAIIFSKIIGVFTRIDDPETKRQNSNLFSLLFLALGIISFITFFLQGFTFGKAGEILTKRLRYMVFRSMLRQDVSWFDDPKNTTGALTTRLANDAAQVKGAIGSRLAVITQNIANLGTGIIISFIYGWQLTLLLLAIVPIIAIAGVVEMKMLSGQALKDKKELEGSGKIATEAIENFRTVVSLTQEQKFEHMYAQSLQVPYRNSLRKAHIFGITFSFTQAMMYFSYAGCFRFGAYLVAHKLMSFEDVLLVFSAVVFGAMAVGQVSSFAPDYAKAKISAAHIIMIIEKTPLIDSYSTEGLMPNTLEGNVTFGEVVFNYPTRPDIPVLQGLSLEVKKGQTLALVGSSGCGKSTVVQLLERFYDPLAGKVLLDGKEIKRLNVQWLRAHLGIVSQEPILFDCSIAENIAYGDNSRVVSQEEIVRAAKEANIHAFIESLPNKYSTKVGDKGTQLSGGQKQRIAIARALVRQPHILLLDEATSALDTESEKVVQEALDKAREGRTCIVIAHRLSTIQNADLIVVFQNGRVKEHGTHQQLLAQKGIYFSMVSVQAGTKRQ

Structure (SMILES) | IC50 at 72 h [1] [µM] | IC50 at 72 h [2] [µM] | increase of intracellular retention of calcein (ABCB1) | inhibition of ABCB1 activity (calcein accumulation assay) (ABCB1)
O=C1N/C(=C/c2ccccc2)C(=O)N2CCC[C@@H]12 [(S,E)-4e] | > 100 | > 100 |  | 
O=C1N/C(=C\c2ccccc2-[c-]2cccc2)C(=O)N2CCC[C@@H]12.[Fe+2].c1cc[cH-]c1 [(S,Z)-4b] |  |  | up to 3.4 fold | efficiently inhibited ABCB1 activity; also recorded: inhibit calcein efflux
O=C1N/C(=C\c2ccccc2)C(=O)N2CCC[C@@H]12 [(S,Z)-4e] | > 100 | > 100 |  | 
O=C1N/C(=C\c2ccc(-[c-]3cccc3)cc2)C(=O)N2CCC[C@@H]12.[Fe+2].c1cc[cH-]c1 [(S,Z)-4d] |  |  | up to 3.4 fold | efficiently inhibited ABCB1 activity; also recorded: inhibit calcein efflux
